# Experimental data as given in PubChem BioAssay (NCI).
#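 GI50 = concentration required for 50% inhibition of growth. The concentration for full growth arrest is given as TGI.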
# Legend:
# Assay in all cases: NCI tumour cell line growth inhibition, 384-well format
# HOP-62 NSCLC = system: HOP-62 NSCLC
# RPMI-8226 leukemia = system: RPMI-8226 leukemia
# NCI-H226 lung = system: NCI-H226 lung
# SR leukemia = system: SR leukemia
# MDA-MB-468 breast = system: MDA-MB-468 breast
# TK-10 renal = system: TK-10 renal
# NCI-H322M lung = system: NCI-H322M lung
# SN12C renal = system: SN12C renal
# UACC-62 melanoma = system: UACC-62 melanoma
# 786-0 renal = system: 786-0 renal
# SW-620 colon = system: SW-620 colon
# HCC-2998 colon = system: HCC-2998 colon
# K-562 leukemia = system: K-562 leukemia
# HT29 colon = system: HT29 colon
# M14 melanoma = system: M14 melanoma
# EKVX NSCLC = system: EKVX NSCLC
# IGROV1 ovarian = system: IGROV1 ovarian
# NCI-H23 lung = system: NCI-H23 lung
# BT-549 breast = system: BT-549 breast
# UO-31 renal = system: UO-31 renal
# SF-539 CNS = system: SF-539 CNS
# SF-295 CNS = system: SF-295 CNS
# NCI-H522 lung = system: NCI-H522 lung
# OVCAR-8 ovarian = system: OVCAR-8 ovarian
# T-47D breast = system: T-47D breast
# RXF 393 renal = system: RXF 393 renal
# MOLT-4 leukemia = system: MOLT-4 leukemia
# MCF7 breast = system: MCF7 breast
# SNB-19 CNS = system: SNB-19 CNS
# LOX IMVI melanoma = system: LOX IMVI melanoma
# NCI/ADR-RES ovarian = system: NCI/ADR-RES ovarian
# HOP-92 NSCLC = system: HOP-92 NSCLC
# A549 NSCLC = system: A549 NSCLC
# MDA-MB-435 melanoma = system: MDA-MB-435 melanoma
# PC-3 prostate = system: PC-3 prostate
# UACC-257 melanoma = system: UACC-257 melanoma
# A498 renal = system: A498 renal
# OVCAR-5 ovarian = system: OVCAR-5 ovarian
# KM12 colon = system: KM12 colon
# OVCAR-3 ovarian = system: OVCAR-3 ovarian
# SK-MEL-5 melanoma = system: SK-MEL-5 melanoma
# SF-268 CNS = system: SF-268 CNS
# HL-60(TB) leukemia = system: HL-60(TB) leukemia
# OVCAR-4 ovarian = system: OVCAR-4 ovarian
# NCI-H460 NSCLC = system: NCI-H460 NSCLC
# HCT-15 colon = system: HCT-15 colon
# SNB-75 CNS = system: SNB-75 CNS
# SK-OV-3 ovarian = system: SK-OV-3 ovarian
# CAKI-1 renal = system: CAKI-1 renal
# ACHN renal = system: ACHN renal
# COLO 205 colon = system: COLO 205 colon
# HS 578T breast = system: HS 578T breast
# MALME-3M melanoma = system: MALME-3M melanoma
# MDA-MB-231 breast = system: MDA-MB-231 breast
# SK-MEL-28 melanoma = system: SK-MEL-28 melanoma
# DU-145 prostate = system: DU-145 prostate
smiles,measurement,setting,value
C=CC(=O)N1CC[C@H](n2nc(C#Cc3cc(OC)cc(OC)c3)c3c(N)ncnc32)C1,GI50,HOP-62 NSCLC,6.44 µM
same,TGI,HOP-62 NSCLC,> 100 µM
same,GI50,RPMI-8226 leukemia,1.53 µM
same,TGI,RPMI-8226 leukemia,4.41 µM
same,GI50,NCI-H226 lung,12.7 µM
same,TGI,NCI-H226 lung,> 100 µM
same,GI50,SR leukemia,3.11 µM
same,TGI,SR leukemia,13 µM
same,GI50,MDA-MB-468 breast,2.09 µM
same,TGI,MDA-MB-468 breast,4.53 µM
same,GI50,TK-10 renal,5.66 µM
same,TGI,TK-10 renal,71.7 µM
same,GI50,NCI-H322M lung,11.5 µM
same,TGI,NCI-H322M lung,> 100 µM
same,GI50,SN12C renal,3.64 µM
same,TGI,SN12C renal,33.9 µM
same,GI50,UACC-62 melanoma,5.78 µM
same,TGI,UACC-62 melanoma,30.5 µM
same,GI50,786-0 renal,2.96 µM
same,TGI,786-0 renal,19.1 µM
same,GI50,SW-620 colon,13.2 µM
same,TGI,SW-620 colon,32.6 µM
same,GI50,HCC-2998 colon,2.98 µM
same,TGI,HCC-2998 colon,11 µM
same,GI50,K-562 leukemia,12 µM
same,TGI,K-562 leukemia,> 100 µM
same,GI50,HT29 colon,17.5 µM
same,TGI,HT29 colon,> 100 µM
same,GI50,M14 melanoma,16.9 µM
same,TGI,M14 melanoma,69.8 µM
same,GI50,EKVX NSCLC,13.4 µM
same,TGI,EKVX NSCLC,98.9 µM
same,GI50,IGROV1 ovarian,4.93 µM
same,TGI,IGROV1 ovarian,20.7 µM
same,GI50,NCI-H23 lung,10.5 µM
same,TGI,NCI-H23 lung,28.6 µM
same,GI50,BT-549 breast,1.51 µM
same,TGI,BT-549 breast,12.2 µM
same,GI50,UO-31 renal,17.6 µM
same,TGI,UO-31 renal,> 100 µM
same,GI50,SF-539 CNS,4.52 µM
same,TGI,SF-539 CNS,20.6 µM
same,GI50,SF-295 CNS,25.5 µM
same,TGI,SF-295 CNS,> 100 µM
same,GI50,NCI-H522 lung,4.39 µM
same,TGI,NCI-H522 lung,14.2 µM
same,GI50,OVCAR-8 ovarian,15.9 µM
same,TGI,OVCAR-8 ovarian,72.3 µM
same,GI50,T-47D breast,3.29 µM
same,TGI,T-47D breast,52.6 µM
same,GI50,RXF 393 renal,6.72 µM
same,TGI,RXF 393 renal,66.4 µM
same,GI50,MOLT-4 leukemia,2.47 µM
same,TGI,MOLT-4 leukemia,5.06 µM
same,GI50,MCF7 breast,4.34 µM
same,TGI,MCF7 breast,> 100 µM
same,GI50,SNB-19 CNS,12.6 µM
same,TGI,SNB-19 CNS,> 100 µM
same,GI50,LOX IMVI melanoma,6.09 µM
same,TGI,LOX IMVI melanoma,22.1 µM
same,GI50,NCI/ADR-RES ovarian,11.1 µM
same,TGI,NCI/ADR-RES ovarian,44.3 µM
same,GI50,HOP-92 NSCLC,2.52 µM
same,TGI,HOP-92 NSCLC,14.2 µM
same,GI50,A549 NSCLC,12.7 µM
same,TGI,A549 NSCLC,> 100 µM
same,GI50,MDA-MB-435 melanoma,31.1 µM
same,TGI,MDA-MB-435 melanoma,> 100 µM
same,GI50,PC-3 prostate,20.1 µM
same,TGI,PC-3 prostate,> 100 µM
same,GI50,UACC-257 melanoma,2.86 µM
same,TGI,UACC-257 melanoma,8.35 µM
same,GI50,A498 renal,2.73 µM
same,TGI,A498 renal,18.2 µM
same,GI50,OVCAR-5 ovarian,49.4 µM
same,TGI,OVCAR-5 ovarian,> 100 µM
same,GI50,KM12 colon,10.2 µM
same,TGI,KM12 colon,42.1 µM
same,GI50,OVCAR-3 ovarian,3.45 µM
same,TGI,OVCAR-3 ovarian,17.6 µM
same,GI50,SK-MEL-5 melanoma,5.05 µM
same,TGI,SK-MEL-5 melanoma,18.9 µM
same,GI50,SF-268 CNS,9.33 µM
same,TGI,SF-268 CNS,75 µM
same,GI50,HL-60(TB) leukemia,4.6 µM
same,TGI,HL-60(TB) leukemia,16 µM
same,GI50,OVCAR-4 ovarian,2.02 µM
same,TGI,OVCAR-4 ovarian,25.6 µM
same,GI50,NCI-H460 NSCLC,12 µM
same,TGI,NCI-H460 NSCLC,> 100 µM
same,GI50,HCT-15 colon,4.46 µM
same,TGI,HCT-15 colon,25.6 µM
same,GI50,SNB-75 CNS,1.44 µM
same,TGI,SNB-75 CNS,10.7 µM
same,GI50,SK-OV-3 ovarian,5.24 µM
same,TGI,SK-OV-3 ovarian,41.5 µM
same,GI50,CAKI-1 renal,4.44 µM
same,TGI,CAKI-1 renal,> 100 µM
same,GI50,ACHN renal,6.8 µM
same,TGI,ACHN renal,72.9 µM
same,GI50,COLO 205 colon,30 µM
same,TGI,COLO 205 colon,> 100 µM
same,GI50,HS 578T breast,2.74 µM
same,TGI,HS 578T breast,11.5 µM
same,GI50,MALME-3M melanoma,7.39 µM
same,TGI,MALME-3M melanoma,31.4 µM
same,GI50,MDA-MB-231 breast,4.03 µM
same,TGI,MDA-MB-231 breast,68.2 µM
same,GI50,SK-MEL-28 melanoma,17.7 µM
same,TGI,SK-MEL-28 melanoma,91.2 µM
same,GI50,DU-145 prostate,9.04 µM
same,TGI,DU-145 prostate,> 100 µM
